Consider 44 compounds from patent US9550763B2, “Heterocyclic ring and carbocyclic derivative” (Shionogi & Co., Ltd., priority 2012, dated 2017).

Each structure is given as a SMILES string.

This assay has as its target human P2X3 receptor (Homo sapiens (Human), UniProt P56373). The assay can be described thus: Evaluation of human P2X3 receptor inhibitory activity (Test Example 1-1, FDSS 3000, 96-well, 50 nM ATP). Format: cell-based. As to conditions: human P2X3 receptor in C6BU-1 cells; Test Example 1-1 (compounds I-001 to I-300). Put shortly: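 C6BU-1 cells stably expressing human P2X3, loaded with 4 μM Fluo-3-AM (pH 7.5), preincubated 5 min with compound before 50 nM ATP challenge; fluorescence followed 4 min on FDSS 3000. IC50 derived from peak/baseline fluorescence ratio, no-compound as 0% and buffer-instead-of-ATP as 100% inhibition.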

Chain of human P2X3 receptor (P56373 whole entry): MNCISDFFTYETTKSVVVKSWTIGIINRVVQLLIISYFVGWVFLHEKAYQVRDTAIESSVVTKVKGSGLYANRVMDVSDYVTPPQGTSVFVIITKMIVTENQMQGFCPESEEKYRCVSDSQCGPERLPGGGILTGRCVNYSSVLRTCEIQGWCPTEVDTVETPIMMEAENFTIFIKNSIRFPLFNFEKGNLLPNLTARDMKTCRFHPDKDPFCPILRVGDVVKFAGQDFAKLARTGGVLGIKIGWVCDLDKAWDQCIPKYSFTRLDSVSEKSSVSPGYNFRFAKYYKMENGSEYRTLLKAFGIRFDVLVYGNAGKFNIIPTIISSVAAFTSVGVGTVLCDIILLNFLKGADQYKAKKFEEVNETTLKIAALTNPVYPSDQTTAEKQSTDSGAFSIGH

For orientation: IC50 means the concentration that gives 50% inhibition. Read a high IC50 as lower potency. `CCCn1c(=O)cc(Nc2ccc(Oc3cccc(C#N)n3)cn2)n(Cc2ccc(Cl)cc2)c1=O` [Compound I-171] returned a half-maximal inhibitory concentration (IC50) of 21 nM. Turning to `CCCn1c(=O)cc(Nc2ccc(Oc3cccc(C(=O)O)n3)cn2)n(Cc2ccc(Cl)cc2)c1=O` [Compound I-172], the IC50 worked out at 16 nM. The compound `CCn1c(=O)cc(Nc2ccc(Oc3ccc(C(=O)OC)nn3)cc2)n(Cc2ccc(Cl)cc2)c1=O` [Compound I-173] had an IC50 of 4 nM. For the compound `CCn1c(=O)cc(Nc2ccc(Oc3ccc(C(=O)O)nn3)cc2)n(Cc2ccc(Cl)cc2)c1=O` [Compound I-174], inhibition was half-maximal at 36 nM (IC50). In turn, `O=C(NC1CCOCC1)c1cn(Cc2ccc(Cl)cc2)c(Nc2ccc(Oc3ccon3)cc2)nc1=O` [Compound I-175] registered an IC50 of 37 nM.

`CCOC(=O)c1c[nH]/c(=N\c2ccc(Oc3ccc(C)nn3)cc2)n(Cc2ccc(Cl)cc2)c1=O` [Compound I-177] returned an IC50 of 14 nM. Compared with the last compound, the IC50 is about 2.6-fold lower. For the compound `NC(=O)c1cccc(Oc2ccc(/N=c3\[nH]cc(C(N)=O)c(=O)n3Cc3ccc(Cl)cc3)cc2)n1` [Compound I-178], the half-inhibitory concentration (IC50) came to 14 nM. In the case of `Cc1ccc(Oc2ccc(/N=c3\[nH]cc(C(=O)O)c(=O)n3Cc3ccc(Cl)cc3)cc2)nn1` [Compound I-179] it was 359 nM; in that of `Cc1ccc(Oc2ccc(/N=c3\[nH]cc(C(N)=O)c(=O)n3Cc3ccc(Cl)cc3)cc2)nn1` [Compound I-180], 21 nM. Then `O=C(Nc1c[nH]/c(=N\c2ccc(Oc3ccon3)cc2)n(Cc2ccc(Cl)cc2)c1=O)C1CNC1` [Compound I-181], with 131 nM; and `CC(C)(C)OC(=O)N1CCC(C(=O)Nc2c[nH]/c(=N\c3ccc(Oc4ccon4)cc3)n(Cc3ccc(Cl)cc3)c2=O)CC1` [Compound I-182], with 52 nM; and `O=c1c(NC(=O)[C@H]2C[C@H](O)C2)c[nH]/c(=N\c2ccc(Oc3ccon3)cc2)n1Cc1ccc(Cl)cc1` [Compound I-183], with 6 nM. In turn, `O=C(Nc1c[nH]/c(=N\c2ccc(Oc3ccon3)cc2)n(Cc2ccc(Cl)cc2)c1=O)C1COC1` [Compound I-184] had an IC50 of 14 nM. For the compound `CN(C)CCC(=O)Nc1c[nH]/c(=N\c2ccc(Oc3ccon3)cc2)n(Cc2ccc(Cl)cc2)c1=O` [Compound I-185], the IC50 stood at 158 nM. `O=C(Nc1c[nH]/c(=N\c2ccc(Oc3ccon3)cc2)n(Cc2ccc(Cl)cc2)c1=O)C1CCNCC1` [Compound I-186] came in with an IC50 of 72 nM. In the case of `CCCn1c(=O)cc(Nc2ccc(Oc3cccc(C#N)n3)c(C)n2)n(Cc2ccc(Cl)cc2)c1=O` [Compound I-187] it was 4 nM; in that of `CCCn1c(=O)cc(Nc2ccc(Oc3cccc(C(=O)O)n3)c(C)n2)n(Cc2ccc(Cl)cc2)c1=O` [Compound I-188], 6 nM; in that of `CCC(=O)N(CC)c1c[nH]/c(=N\c2ccc(Oc3cccc(C#N)n3)cc2)n(Cc2ccc(Cl)cc2)c1=O` [Compound I-189], 12 nM. Then `Cc1noc(-c2cn(Cc3ccc(Cl)cc3)/c(=N/c3ccc(Oc4cccc(F)n4)cc3)[nH]c2=O)n1` [Compound I-190, 1-(4-chlorobenzyl)-2-[4-(6-fluoro-2-pyridyloxy)phenylamino]-5-(3-methyl-1,2,4-oxadiazol-5-yl)pyrimidin-4(1H)-one], with 6 nM; and `O=C(Nc1c[nH]/c(=N\c2ccc(Oc3ccon3)cc2)n(Cc2ccc(Cl)cc2)c1=O)C1CCOC1` (centres unmarked) [Compound I-192], with 6 nM; and `CCC(=O)N(CC)c1c[nH]/c(=N\c2ccc(Oc3cccc(C(=O)O)n3)cc2)n(Cc2ccc(Cl)cc2)c1=O` [Compound I-193], with 6 nM.

On to `O=c1c(-c2cccnc2O)c[nH]/c(=N\c2ccc(Oc3ccon3)cc2)n1Cc1ccc(Cl)cc1` [Compound I-194], for which it took 658 nM to reach half-maximal inhibition (IC50). The compound `CN(C)C(=O)c1c[nH]/c(=N\c2ccc(Oc3cccc(F)n3)cc2)n(Cc2ccc(Cl)cc2)c1=O` [Compound I-195] showed a half-inhibitory concentration (IC50) of 70 nM. This IC50 is about 9.4-fold lower than that of the compound before. The compound `CCCn1c(=O)cc(Nc2ccc(Oc3cnc(C#N)nc3)cn2)n(Cc2ccc(Cl)cc2)c1=O` [Compound I-196] registered an IC50 of 37 nM.

Compound `CC(=O)N(C)c1c[nH]/c(=N\c2ccc(Oc3cccc(C#N)n3)cc2)n(Cc2ccc(Cl)cc2)c1=O` [Compound I-197] yielded a concentration for half-maximal inhibition (IC50) of 45 nM. The IC50 values of the last two compounds are within 1.5-fold of each other. Then `CCC(=O)N(C)c1c[nH]/c(=N\c2ccc(Oc3cccc(C#N)n3)cc2)n(Cc2ccc(Cl)cc2)c1=O` [Compound I-198], with 12 nM. Then `O=C(NC1CCOCC1)c1cn(Cc2ccc(Cl)cc2)c(Nc2ccc(Oc3ccncc3)cc2)nc1=O` [Compound I-199], with 8 nM; and `NC(=O)c1ccc(Oc2ccc(Nc3nc(=O)c(C(=O)NC4CCOCC4)cn3Cc3ccc(Cl)cc3)cc2)cn1` [Compound I-200], with 10 nM; and `CCCn1c(=O)cc(Nc2ccc(Oc3cnc(C(=O)O)nc3)cn2)n(Cc2ccc(Cl)cc2)c1=O` [Compound I-201], with 96 nM.

As for `CCn1c(=O)cc(Nc2cc(C)c(Oc3cccc(C(=O)O)c3)cn2)n(Cc2ccc(Cl)cc2)c1=O` [Compound I-203], the midpoint of inhibition, the IC50, lay at 336 nM. Regarding `COc1ccc(-c2c[nH]/c(=N\c3ccc(Oc4ccon4)cc3)n(Cc3ccc(Cl)cc3)c2=O)cn1` [Compound I-204], the IC50 was determined as 198 nM.

Compound `O=c1c(-c2ccc(O)nc2)c[nH]/c(=N\c2ccc(Oc3ccon3)cc2)n1Cc1ccc(Cl)cc1` [Compound I-205] came in with a 50% inhibitory concentration (IC50) of 153 nM. `CCOC(=O)c1c[nH]/c(=N\c2ccc(Oc3ccc(F)cn3)c(F)c2)n(Cc2ccc(Cl)cc2)c1=O` [Compound I-206] had an IC50 of 48 nM. `O=C(O)c1c[nH]/c(=N\c2ccc(Oc3ccc(F)cn3)c(F)c2)n(Cc2ccc(Cl)cc2)c1=O` [Compound I-207] gave an IC50 of 252 nM. In the case of `NC(=O)c1c[nH]/c(=N\c2ccc(Oc3ccc(F)cn3)c(F)c2)n(Cc2ccc(Cl)cc2)c1=O` [Compound I-208] it was 31 nM; in that of `CN(C)C(=O)c1c[nH]/c(=N\c2ccc(Oc3cccc(C#N)n3)cc2)n(Cc2ccc(Cl)cc2)c1=O` [Compound I-209], 102 nM. In the case of `CC(=O)N(C)c1c[nH]/c(=N\c2ccc(Oc3cccc(C(=O)O)n3)cc2)n(Cc2ccc(Cl)cc2)c1=O` [Compound I-210] it was 17 nM; in that of `O=C(Nc1c[nH]/c(=N\c2ccc(Oc3ccon3)cc2)n(Cc2ccc(Cl)cc2)c1=O)C1CC(F)(F)C1` [Compound I-211], 15 nM. `O=C(Nc1c[nH]/c(=N\c2ccc(Oc3ccon3)cc2)n(Cc2ccc(Cl)cc2)c1=O)C1CCOC1` (centres unmarked) [Compound I-212] gave an IC50 of 11 nM. Consider `O=C(Nc1c[nH]/c(=N\c2ccc(Oc3ccon3)cc2)n(Cc2ccc(Cl)cc2)c1=O)C1CCOC1` (centres unmarked) [Compound I-213], for which the IC50 was 27 nM. Take `O=C(Nc1c[nH]/c(=N\c2ccc(Oc3ccc(F)cn3)cc2)n(Cc2ccc(Cl)cc2)c1=O)C1COC1` [Compound I-214]: the midpoint of inhibition, the IC50, lay at 13 nM. Against the preceding compound, the IC50 is about 2.1-fold lower. Then `N#Cc1cccc(Oc2ccc(Nc3nc(=O)c(C(=O)NC4CCOCC4)cn3Cc3ccc(Cl)cc3)cc2)n1` [Compound I-216], with 6 nM; and `NC(=O)c1cccc(Oc2ccc(Nc3nc(=O)c(C(=O)NC4CCOCC4)cn3Cc3ccc(Cl)cc3)cc2)n1` [Compound I-217], with 5 nM; and `O=c1c(NC(=O)[C@H]2C[C@H](F)C2)c[nH]/c(=N\c2ccc(Oc3ccon3)cc2)n1Cc1ccc(Cl)cc1` [Compound I-218], with 17 nM.
